The source of these data is paper PMC8682804 (Science signaling, 2021).

Experiment [1] has as its target T1, PTHR (Homo sapiens, UniProt Q03431).
T1 sequence (Q03431 27-593): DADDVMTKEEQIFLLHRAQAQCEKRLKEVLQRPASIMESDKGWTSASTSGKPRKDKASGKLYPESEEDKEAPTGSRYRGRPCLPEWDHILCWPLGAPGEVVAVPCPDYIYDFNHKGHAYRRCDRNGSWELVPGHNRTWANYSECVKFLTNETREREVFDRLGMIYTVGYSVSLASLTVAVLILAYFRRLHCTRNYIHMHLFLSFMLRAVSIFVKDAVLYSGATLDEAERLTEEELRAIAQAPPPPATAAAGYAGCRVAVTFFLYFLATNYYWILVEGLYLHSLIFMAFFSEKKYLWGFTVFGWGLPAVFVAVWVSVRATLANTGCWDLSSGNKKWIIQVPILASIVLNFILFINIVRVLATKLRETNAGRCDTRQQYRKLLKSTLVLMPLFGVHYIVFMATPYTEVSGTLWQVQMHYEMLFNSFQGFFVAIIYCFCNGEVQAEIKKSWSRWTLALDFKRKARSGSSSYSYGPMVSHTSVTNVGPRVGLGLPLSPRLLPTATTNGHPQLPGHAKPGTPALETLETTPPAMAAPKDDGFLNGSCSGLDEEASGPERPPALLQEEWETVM
The experiment in a line: Time-course measurement of cAMP by FRET. It is filed as cell-based. The note with it: comparison of PTH^WT and its diastereomers, fig. S1B.

Experiment [2] addresses T2, PTHR^CFP and βarr-2^YFP (Homo sapiens, UniProt Q03431).
T2 sequence (Q03431 27-593): T1 sequence (Q03431 27-593)
The experiment in a line: Time-course of β-arr2 recruitment by FRET. It is filed as cell-based. The note with it: comparison of PTH^WT and its diastereomers, fig. S1C.

Experiment [3] concerns the target PTHR in membranes of HEK-293-Gs-null cells (clone CL2) (UniProt Q03431). The experiment in a line: radioligand binding.

As for (D)-Asn([10])-PTH1–34 [PTH^10d], in experiment [1], the “cAMP production time course” value is given as “indistinguishable increases in cAMP”. The “interaction of PTHR with β-arr2, time course” value in experiment [2] is “stimulated the interaction of PTHR with β-arr2”. In experiment [3], “(D)-Leu(7)-PTH_(1–34)-NH2 (PTH^7d) (peptide)” registered an IC50 of 0.1 nM. Still for that read-out and setting: to “PTH_(1–34) (PTH^WT), the synthetic N-terminal fragment of parathyroid hormone (peptide)” belongs 0.1 nM.
